# What was measured:
# [1] = system: HT29 vector control cells; experiment: Sensitivity of HT29 vector control cells; type: cell-based, human
# Description: (E) Introduction of a V5-tagged constitutively activated (CA) mutant of the BMP receptor, BMPR1A (Q233D) or control vector in HT29 cells and effects on 5Z-7-oxozeaenol sensitivity in terms of IC50 values.
# To determine whether TAK1-independent cells could be driven toward TAK1 dependency by enhanced KRAS/Wnt signaling, a series of reconstitution experiments was performed. HT29, SW620 or SKCO1 cells were infected with recombinant lentiviruses encoding either BMPR1A-CA and CTNNB1-CA or vector control (containing the ccDB gene). For BMPR1A-CA stable expression, cells were selected in 5 μg/mlBlasticidin for 7 days and pooled clones were established. Stable expression was verified using the V5 epitope tag on the BMPR1A transgene product. For CTNNB1-CA, the pWPI recombinant lentiviruses encode GFP driven by IRES. Thus, stable cell clones were obtaining by FACS live cell sorting to obtain the top 10% of GFP expressing cells. The SW620-CTNNB1-CA stable cell clones were passaged 1:5 every 2 days and assayed for KRAS dependency after the fifth passage.
# To further define the role of BMP signaling in TAK1 dependency, a constitutively-activated (CA) variant (Q233D) of BMPR1A (Zou et al., 1997) was ectopically expressed in HT29 cells. […] This was accompanied by dose-dependent decreases in Axin 2 and phosphorylated Smad2 levels. […]
# [2] = system: TOP-FLASH TCF4-responsive luciferase reporter; experiment: TOP-FLASH TCF4 luciferase reporter in colon cancer cell lines; type: cell-based, human
# Text: (B) TOP-FLASH activity in KRAS-independent and KRAS-dependent cell lines following TAK1 inhibition with indicated concentrations (μM). Data are represented as means of triplicate experiments±SEM.
# Since Wnt pathway enrichment was found in KRAS-dependent cells (FIG. 8C), the TAK1 dependency signature was overlapped with a dataset of binding sites for the Wnt-regulated transcription factor TCF4, derived from ChIP-on-Chip analyses (Hatzis et al., 2008). Of the 32 TAK1 dependency genes, 18 contained proximal TCF4 binding sites. A number of these genes, such as BAMBI, PROX1 and NAV2 (HELAD1) have been previously linked to colon tumorigenesis in the context of deregulated Wnt signaling (Lin et al., 2008; Petrova et al., 2008; Sekiya et al., 2004). Basal Wnt signaling activity was measured by TOP-FLASH TCF4-responsive luciferase assays. Cells were plated in 12-well tissue culture plates at a density of 5×10^4 cells/ml and 1 ml per well. Cells were then co-transfected with either 0.5 μg FOP-FLASH or TOP-FLASH plasmids plus 50 ng of pRL-TK (expressing Renilla luciferase). […]
# To explore the role of KRAS and TAK1 in modulating Wnt signaling, the effect of KRAS depletion on β-catenin/TCF transcription was first assessed in a panel of KRAS mutant cell lines using the TOP-FLASH reporter (FIGS. 5A and 11A). […]
# [3] = system: TOP-FLASH reporter in YAPC cells; experiment: TOP-FLASH reporter in YAPC PDAC cells; type: cell-based; details: YAPC cells, simultaneous treatment with BIO
# Text: (E) TOP-FLASH reporter activity in KRAS mutant PDAC cell lines following inhibition of GSK-3 kinase with increasing concentrations of the small molecule inhibitor BIO. PANC-1 are KRAS-independent cells and YAPC are KRAS-dependent cells. Luminescence counts (photons/sec) are plotted on the y-axis. Data are representative of three independent experiments+/−SEM.
# (F) TOP-FLASH reporter dose-response relationships in PANC-1 and YAPC cells following combined treatment with GSK-3 and TAK1 inhibitors (BIO and 5Z-7-Oxozeaenok respectively). Luminescence counts (photons/sec) are plotted on the y-axis. Data are represented as the means of triplicates+/−SEM.
# To further test the role of Wnt signaling in this context, experiments were performed using two KRAS mutant pancreatic cancer (PDAC) cell lines, PANC-1 and YAPC, which are APC wild-type. PANC-1 cells are KRAS-independent, whereas YAPC cells are KRAS-dependent, a distinction that has been linked to increased KRAS signaling in YAPC cells (Singh et al., 2009). […] In contrast, PANC-1 cells undergo stronger induction of TOP-FLASH activity with combined GSK-3 and TAK1 inhibition (FIG. 11F, […]). […] Finally, a constitutively-activated mutant of β-catenin (CTNNB1-CA) containing S33Y and S45A missense mutations was introduced into KRAS-dependent SW620 cells. This mutant caused partial losses in both KRAS and TAK1 dependencies (FIGS. 13A-C). […]
structure (smiles),measurement,setting,value
COc1cc(O)c2c(c1)/C=C/C[C@H](O)[C@H](O)C(=O)/C=C\C[C@H](C)OC2=O [5Z-7-oxozeaenol],IC50,[1],7.7 µM
same,IC50,"[2]; KRAS-independent cells, 24 h treatment, read-out: IC50 for effect on TOP-FLASH activity",> 10 µM
same,TOP-FLASH activity response,"[2]; SW837 cells, increased at low doses, reduced at 5 μM",biphasic response
same,effect on BIO-mediated TOP-FLASH induction,[3],abrogates the BIO-mediated TOP-FLASH induction
